Source: patent US12398120B2, “Substituted hydantoinamides as ADAMTS7 antagonists” (BAYER AKTIENGESELLSCHAFT, priority 2019, dated 2025)

The compounds below were run against ADAMTS4 (Homo sapiens (Human), UniProt O75173) (assay: Selectivity assay for ADAMTS-7 modulators: ADAMTS4 (FRET substrate)). Details: ADAMTS4 (R&D 4307-AD) 50 nM, substrate Dabcyl-EEVKAKVQPY-Glu(Edans)-NH2 1 μM, 120 min, 32° C.
Type: biochemical
Procedure: 1 μl test compound solution (dissolved in DMSO, at the corresponding concentration) or pure DMSO as a control was added per well. The enzymatic reaction was initiated by addition of 25 μl of the respective concentration of the respective FRET substrate (see table 2 below) in reaction buffer.
The increase of fluorescence intensity was measured in appropriate fluorescence plate reader (e.g. TECAN Ultra) using the respective wavelengths for excitation and emission. IC50 values were calculated from percentage of inhibition of enzyme activity as a function of test compound concentration.

Chain of ADAMTS4 (O75173 213-685): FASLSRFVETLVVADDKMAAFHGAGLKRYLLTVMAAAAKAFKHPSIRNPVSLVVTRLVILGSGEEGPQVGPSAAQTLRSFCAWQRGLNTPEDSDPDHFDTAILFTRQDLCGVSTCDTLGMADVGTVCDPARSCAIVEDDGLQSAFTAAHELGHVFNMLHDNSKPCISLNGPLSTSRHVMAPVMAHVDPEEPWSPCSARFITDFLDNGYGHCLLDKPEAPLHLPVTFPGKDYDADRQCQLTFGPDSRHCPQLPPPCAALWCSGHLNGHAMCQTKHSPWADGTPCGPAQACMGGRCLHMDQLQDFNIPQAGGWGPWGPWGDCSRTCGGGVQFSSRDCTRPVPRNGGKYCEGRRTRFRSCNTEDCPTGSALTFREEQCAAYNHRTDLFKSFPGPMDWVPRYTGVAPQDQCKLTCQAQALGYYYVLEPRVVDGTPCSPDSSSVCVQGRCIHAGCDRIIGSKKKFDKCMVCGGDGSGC

| SMILES | IC50 |
| --- | --- |
| CC(C)(C)c1ccc(-c2ccccc2C(=O)NC[C@@]2(C3CC3)NC(=O)NC2=O)cc1 [Example 113, 4′-Tert-Butyl-N-{[(4R)-4-Cyclopropyl-2,5-Dioxoimidazolidin-4-Yl]Methyl}[Biphenyl]-2-Carboxamide] | 12 µM |
| Cc1cc(C2(CNC(=O)c3ccc(F)cc3-c3ccc(C(F)(F)F)cc3)NC(=O)NC2=O)n(C)n1 (racemic) [Example 276, Rac-N-{[4-(1,3-Dimethyl-1H-Pyrazol-5-Yl)-2,5-Dioxoimidazolidin-4-Yl]Methyl}-5-Fluoro-4′-(Trifluoromethyl)[Biphenyl]-2-Carboxamide] | 15 µM |
| Cc1cccc(C(=O)NC[C@@]2(C3CC3)NC(=O)NC2=O)c1-c1ccc(C(F)(F)F)cc1 [Example 109, N-{[(4R)-4-Cyclopropyl-2,5-Dioxoimidazolidin-4-Yl]Methyl}-6-Methyl-4′-(Trifluoromethyl)[Biphenyl]-2-Carboxamide] | 8.7 µM |
| O=C1NC(=O)C(CNC(=O)c2ccc(F)c(F)c2-c2ccc(C(F)(F)F)cc2)(C23CC(F)(C2)C3)N1 (racemic) [Example 295, Rac-5,6-Difluoro-N-{[4-(3-Fluorobicyclo[1.1.1]Pentan-1-Yl)-2,5-Dioxoimidazolidin-4-Yl]Methyl}-4′-(Trifluoromethyl)[Biphenyl]-2-Carboxamide] | > 50 µM |
| Cc1nonc1C1(CNC(=O)c2ccccc2-c2ccc(C(F)(F)F)cc2)NC(=O)NC1=O (stereo not drawn) [Example 73, Ent-N-{[4-(4-Methyl-1,2,5-Oxadiazol-3-Yl)-2,5-Dioxoimidazolidin-4-Yl]Methyl}-4′-(Trifluoromethyl)[Biphenyl]-2-Carboxamide] | 20 µM |
| O=C1NC(=O)C(CNC(=O)c2ccccc2-c2ccc(C(F)(F)F)cc2)(c2ccnn2C(F)F)N1 (racemic) [Example 260, Rac-N-({4-[1-(Difluoromethyl)-1H-Pyrazol-5-Yl]-2,5-Dioxoimidazolidin-4-Yl}Methyl)-4′-(Trifluoromethyl)[Biphenyl]-2-Carboxamide] | 17 µM |
| O=C1NC(=O)C(CNC(=O)c2ccccc2-c2ccc(C(F)(F)F)cc2)(C2(F)CC2)N1 (racemic) [Example 254, Rac-N-{[4-(1-Fluorocyclopropyl)-2,5-Dioxoimidazolidin-4-Yl]Methyl}-4′-(Trifluoromethyl)[Biphenyl]-2-Carboxamide] | 26 µM |
| O=C1NC(=O)C(CNC(=O)c2cc(F)ccc2-c2ccc(C(F)(F)F)cc2)(c2ncsc2C(F)(F)F)N1 (stereo not drawn) [Example 266, Ent-N-({2,5-Dioxo-4-[5-(Trifluoromethyl)-1,3-Thiazol-4-Yl]Imidazolidin-4-Yl}Methyl)-4-Fluoro-4′-(Trifluoromethyl)[Biphenyl]-2-Carboxamide] | 10 µM |
| Cn1nccc1C1(CNC(=O)c2cccc(F)c2-c2ccc(C(F)(F)F)cc2)NC(=O)NC1=O (single isomer, unassigned; ent-6) [Example 195, Ent-6-Fluoro-N-{[4-(1-Methyl-1H-Pyrazol-5-Yl)-2,5-Dioxoimidazolidin-4-Yl]Methyl}-4′-(Trifluoromethyl)[Biphenyl]-2-Carboxamide] | 4.63 µM |
| O=C1NC(=O)C(CNC(=O)c2ccccc2-c2ccc(C(F)(F)F)cc2)(c2ncsc2C(F)(F)F)N1 (stereo not drawn) [Example 264, Ent-N-({2,5-Dioxo-4-[5-(Trifluoromethyl)-1,3-Thiazol-4-Yl]Imidazolidin-4-Yl}Methyl)-4′-(Trifluoromethyl)[Biphenyl]-2-Carboxamide] | 11 µM |
| Cc1scnc1C1(CNC(=O)c2ccc(F)cc2-c2ccc(Cl)cc2)NC(=O)NC1=O (single isomer, unassigned; ent-4) [Example 170, Ent-4′-Chloro-5-Fluoro-N-{[4-(5-Methyl-1,3-Thiazol-4-Yl)-2,5-Dioxoimidazolidin-4-Yl]Methyl}[Biphenyl]-2-Carboxamide] | 4.9 µM |
| O=C1NC(=O)C(CNC(=O)c2ccccc2-c2ccc(C(F)(F)F)cc2)(c2ncsc2C2CC2)N1 (racemic) [Example 270, Rac-N-{[4-(5-Cyclopropyl-1,3-Thiazol-4-Yl)-2,5-Dioxoimidazolidin-4-Yl]Methyl}-4′-(Trifluoromethyl)[Biphenyl]-2-Carboxamide] | 6.9 µM |
